Values joined by “and” are separate entries in the source; they are usually repeats but may differ in a detail not shown here. Equal entries are not always repeated. Structures can show the parent of a compound that is named as a salt. Where two headings read alike, the source gives them in different places.
Assays:
[1] = rats; cited from earlier work
[2] = humans; cited from earlier work
mice = settings: metabolites identified in urine; cited from earlier work
[3] = in vivo; cited from earlier work
[4] = cited from earlier work; for Half-lives (t1/2app): human, in vivo
[5] = cited from earlier work
[6] = oral administration; cited from earlier work
[7] = drug content of 80% saturated donor solution in propylene glycol; assay type: physicochemical; settings: 80% of saturation, saturated at 32° C.
Procedure: For standardization, saturated solutions of bupropion in propylene glycol were made and 80% of the saturated solution was used as donor solutions. 1,100 mg bupropion has been suspended in 6.0 ml propylene glycol and was vortexed at 90 rpm for 68 hrs at 32° C. in a thermostated shaking cupboard. Controls have been done every 24 hrs to assure that sufficient undissolved drug was in the vessel. Thereafter the suspension was centrifuged (3,000 rpm) for 10 minutes and the clear supernatant was used as saturated solution.
For the diffusion experiments the donor solutions were freshly prepared for each experiment, 550 mg of the bupropion base were suspended in 3.0 ml propylene glycol (PG) and treated as previously described.
A spectroflow 400 pump (Separations, Hendrik Ido Ambacht, The Netherlands) was used to deliver the mobile phase, consisting of acetronitrile 0.1 m KF2 PO4 pH3 20:80 (v/v) with a flow rate of 0.8 ml/min. The mobile phase was degassed with a vacuum pump and chromatography was performed at ambient temperature. Sample amounts of 20 μl were injected with a Gilson model 321 autosampler (Gilson Middleton, Wisconsin USA) with a 20 microliter loop built in onto a inertsil 5 ODS column (Chrompack Nederland BV, Bergen op Zoom, The Netherlands). […] Bupropion base was detected by UV absorption at 310 nm using a spectra 100 spectrophometer (Spectra-Physics, Breda, The Netherlands). […]

[8] = rats; cited from earlier work; remark: listed apart in the source
[9] = dogs; cited from earlier work
albumin = settings: cited from earlier work
[10] = mouse, cited from earlier work
[11] = rat; cited from earlier work
[12] = dog, cited from earlier work

Question: Which extent of metabolism [1] does the source give for CC(NC(C)(C)C)C(=O)c1cccc(Cl)c1 (centres unmarked) [bupropion hydrochloride] here?
Answer: Its extent of metabolism is “highly metabolized”.

Question: And the extent of metabolism [2]?
Answer: The extent of metabolism was “highly metabolized”.

Question: For C[C@@H](NC(C)(C)C)[C@H](O)c1cccc(Cl)c1 (relative stereo) [TB], which activity in mice (mice) is on record?
Answer: Its activity in mice is “have shown activity in mice”.

Question: And the “antidepressive effect potency relative to parent medicament” value [3]?
Answer: The value was “half as parent medicament”.

Question: And the “Half-lives (t1/2app)” value [4]?
Answer: The value was 38.8 ± 7.6 h.

Question: What about the “kinetics relative to MM” value ([5]; in vivo, po) of the same compound?
Answer: The value was “parallel that of MM”.

Question: For CC(NC(C)(C)C)C(=O)c1cccc(Cl)c1 (centres unmarked) [carbon 14 bupropion], which excreted unchanged [6] is on record?
Answer: The excreted unchanged was “less than 0.5%”.

Question: What about the “radioactivity recovered in the feces” value [6] of the same compound?
Answer: Its value is 10%.

Question: What about the “radioactivity recovered in the urine” value [6] of the same compound?
Answer: The value was 87%.

Question: Which results are given for C[C@H](NC(C)(C)CO)[C@H](O)c1cccc(Cl)c1 (relative stereo) [erythro amino diol]?
Answer: activity in mice (mice): have shown activity in mice; quantifiability after oral dose ([5]; in vivo, po): not quantifiable

Question: With C[C@H](NC(C)(C)C)[C@H](O)c1cccc(Cl)c1 (relative stereo) [EB] as the compound, how does the activity in mice (mice) read?
Answer: Its activity in mice is “have shown activity in mice”.

Question: And the “Half-lives (t1/2app)” value [4]?
Answer: The value was 61.4 ± 21.6 h.

Question: What about the “quantifiability after oral dose” value ([5]; in vivo, po) of the same compound?
Answer: The value was “not quantifiable”.

Question: Which results are given for CC(NC(C)(C)C)C(=O)c1cccc(Cl)c1 (centres unmarked) [bupropion]?
Answer: drug content of 80% saturated solution [7]: 104 mg/ml PG; absolute bioavailability [8]: five to twenty; absolute bioavailability [9]: five to twenty; bound to albumin (albumin): 80%; reduction (induction of own metabolism) ([10]; over ten days): 58%; induction of its own metabolism [10]: induces its own metabolism; induction of its own metabolism [11]: induces its own metabolism; reductions (induction of own metabolism) ([12]; two different dose levels, over one year of treatment): 76% and 90%; induction of its own metabolism [12]: induces its own metabolism; half-life change after multiple dosing ([4]; elderly patients, after multiple dosing): did not change significantly; first pass metabolism ([5]; in vivo): very rapid first pass metabolism; dose proportionality of drug blood concentration ([5]; oral dosage, 100 to 250 mgs): dose proportional from 100 to 250 mgs; biological half life ([5]; oral dosage): approximately 14 hours; biological half life, range ([5]; oral dosage): 8-24 hours; time at which Cmax occurs ([5]; oral dosage): approximately 2 hours; oral dose kinetics model ([5]; single oral dose): best described by a 2 compartment open model with first order absorption

Question: For CC1NC(C)(C)COC1(O)c1cccc(Cl)c1 (centres unmarked) [HB], which activity in mice (mice) is on record?
Answer: The activity in mice was “have shown activity in mice”.

Question: And the “antidepressive effect potency relative to parent medicament” value [3]?
Answer: The value was “half as potent”.

Question: What about the “AUC relative to medicament drug” value ([5]; single oral dose of bupropion) of the same compound?
Answer: The value was “fifteen times”.

Question: And the “Cmax relative to medicament drug” value ([5]; single oral dose of bupropion)?
Answer: Its value is “three times”.

Question: What about the “speed of appearance in the systemic circulation relative to parent” value ([5]; single oral dose) of the same compound?
Answer: The value was “almost as fast”.

Source: patent publication US6280763A, “Apparatus and method for transdermal delivery of bupropion” (priority 1999, dated 2001)
